Calls of active or inactive are those of the source.
Experiments:
[1] = Dose-response inhibition of insulin secretion in a rat insulinoma line at 5 mM glucose (AID 1117331); assay type: functional, cell-based; conditions: INS-1E
[2] = growth inhibition of replicating M. tuberculosis, dose response, counter-screen, dry powder, IC90 (AID 651617); assay type: functional; conditions: Mycobacterium tuberculosis
[3] = inhibitors of non-replicating M. tuberculosis, dose response, luciferase, dry powder (AID 651619); assay type: functional; conditions: Mycobacterium tuberculosis
[4] = inhibitors of non-replicating M. tuberculosis, dose response, luciferase, dry powder (AID 651620); assay type: functional; conditions: Mycobacterium tuberculosis
[5] = HeLa cell cytotoxicity, dose response, cytotoxicity control, 24 h, plate reader, powder samples, set 3 (AID 651864); assay type: functional, cell-based
[6] = cytotoxicity in OVCAR4 cells, dose response, cytotoxicity control for PAX8 inhibitor project, cell-based, plate reader, dry powder, SA11 (AID 743150); assay type: functional; conditions: OVCAR-4
[7] = cytotoxicity in OV-90 ovarian cancer cells, dose response, PAX8 inhibitor project, cell-based, plate reader, dry powder, SA8 (AID 743149); assay type: functional
[8] = IOSE-T80 ovarian epithelial cell cytotoxicity, dose response, cytotoxicity control for PAX8 inhibitor project, plate reader, dry powder samples (AID 743045); assay type: functional, cell-based
[9] = cytotoxicity in COV434 cells, dose response, cytotoxicity control for PAX8 inhibitor project, cell-based, plate reader, dry powder, SA7 (AID 743145); assay type: functional
[10] = A2780 ovarian cancer cell cytotoxicity, dose response, cytotoxicity control, plate reader, dry powder samples (AID 743046); assay type: functional, cell-based
[11] = test system: BJ; assay: cytotoxicity toward BJ-TERT-LT-ST fibroblasts, dose response, cell-based, RAS-independent, luminescence (AID 1935); assay type: functional; conditions: Homo sapiens;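 note: BJ fibroblasts immortalized with TERT plus LT and ST oncogenes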
[12] = cytotoxicity in COV362 ovarian cancer cells, dose response, cytotoxicity control for PAX8 inhibitor project, cell-based, plate reader, dry powder, SA12 (AID 743144); assay type: functional
[13] = NIH:OVCAR-3 ovarian cancer cell cytotoxicity, dose response, PAX8 inhibitor project, plate reader, dry powder samples (AID 743044); assay type: functional, cell-based
[14] = Luminescence-based dose response cell-based high throughput screening assay for cytotoxic compounds using the IEC-6 intestinal epithelial cell line. [Related pubchem assays: 1858 (Summary AID.), 1825 (Counterscreen.), 1907 (Confirmation screen.)]; assay type: functional
[15] = test system: BJ; assay: cytotoxicity toward BJ-TERT fibroblasts, dose response, cell-based, RAS-independent, luminescence (AID 1933); assay type: functional; conditions: Homo sapiens
[16] = biological target: Paired box protein Pax-8 (Homo sapiens, UniProt Q06710); assay: inhibitors of PAX8-driven TPO luciferase reporter, dose response, RMG-I cells, cherry-pick (AID 687027); assay type: functional, cell-based;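 note: luciferase reporter driven by Pax8 target thyroperoxidase promoter measured by SteadyGlo luminescence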
Paired box protein Pax-8, sequence (Q06710 whole entry): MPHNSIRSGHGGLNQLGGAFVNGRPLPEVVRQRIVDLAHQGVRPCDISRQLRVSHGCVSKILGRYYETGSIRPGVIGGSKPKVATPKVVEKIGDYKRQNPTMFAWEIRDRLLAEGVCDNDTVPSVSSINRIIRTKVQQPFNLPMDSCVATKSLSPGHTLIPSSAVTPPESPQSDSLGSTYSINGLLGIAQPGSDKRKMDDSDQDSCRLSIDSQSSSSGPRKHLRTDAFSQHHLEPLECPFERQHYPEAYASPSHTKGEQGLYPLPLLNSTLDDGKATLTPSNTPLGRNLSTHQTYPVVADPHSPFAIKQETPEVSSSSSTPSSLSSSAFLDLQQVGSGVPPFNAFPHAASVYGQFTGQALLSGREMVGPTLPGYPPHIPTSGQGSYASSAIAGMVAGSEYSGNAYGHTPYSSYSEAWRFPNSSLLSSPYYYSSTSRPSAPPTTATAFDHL

[17] = PAX2 cell-based inhibition, dose response, selectivity assay for PAX8 inhibitor project, plate reader, dry powder samples (AID 743048); assay type: functional;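 note: HEK293 cells carrying a WT1 promoter luciferase reporter driven by expressed Pax2; potency is for inhibition of Pax2 driven reporter signal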
[18] = test system: BJ; assay: cells; assay type: functional, cell-based; conditions: Homo sapiens
[19] = inhibitors of SNCA 5'UTR-driven reporter translation, confirmation, H4 neuroglioma cells, luminescence (AID 1988); assay type: functional, cell-based
[20] = cytotoxicity toward DRD oncogenic fibroblasts, dose response, cell-based, non-viral oncogenic, luminescence (AID 1934); assay type: functional; conditions: Homo sapiens
[21] = inhibitors of firefly luciferase expression or activity, dose response, H4 neuroglioma cells, luminescence (AID 1990); assay type: functional, cell-based
[22] = test system: BJ; assay: cytotoxicity toward Ras-transformed BJeLR fibroblasts, dose response, cell-based, alamar blue fluorescence, cherrypicked samples (AID 2631); assay type: functional; conditions: Homo sapiens;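 note: confirmatory dose-response assay in RAS-dependent BJ fibroblasts engineered with TERT, LT and ST, with cytotoxicity read by fluorescence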
[23] = Luminescence Cell-Based Dose Response HTS to Identify Inhibitors of 5'UTR Stem-Loop Driven Prion Protein mRNA Translation in H4 Neuroglioblastoma Cells. [Related pubchem assays: 1827 (Project Summary), 1813 (Primary HTS)]; assay type: functional
[24] = IGROV1 ovarian cancer cell cytotoxicity, dose response, PAX8 inhibitor project, plate reader, dry powder samples (AID 743043); assay type: functional, cell-based; conditions: IGROV-1
[25] = PAX5 activity inhibitors, dose response, selectivity assay for PAX8 inhibitor project, cell-based, plate reader, dry powder samples (AID 743047); assay type: functional;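 note: HEK293 cells carrying a Pax5 driven CD19 promoter luciferase reporter; potency of inhibitors that lower reporter luminescence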
[26] = cytotoxicity dependent on PAX8, dose response, cell-based, plate reader, dry powder (AID 743049); assay type: functional
[27] = A549 cell cytotoxicity, dose response, cytotoxicity control, cherry-picks, 26 µM top dose (AID 1053119); assay type: functional, cell-based
[28] = cells; conditions: HEK293
[29] = HepG2 cell cytotoxicity, dose response, cytotoxicity control, ATP luminescence, cherry-pick, set 6 (AID 1053125); assay type: functional, cell-based
[30] = biological target: Mu-type opioid receptor (Homo sapiens, UniProt P35372); assay: Late-stage results from the probe development effort to identify antagonists of OPRK1: luminescence-based cell-based dose response OPRM1 counterscreen.; assay type: functional
Mu-type opioid receptor, sequence (P35372 whole entry): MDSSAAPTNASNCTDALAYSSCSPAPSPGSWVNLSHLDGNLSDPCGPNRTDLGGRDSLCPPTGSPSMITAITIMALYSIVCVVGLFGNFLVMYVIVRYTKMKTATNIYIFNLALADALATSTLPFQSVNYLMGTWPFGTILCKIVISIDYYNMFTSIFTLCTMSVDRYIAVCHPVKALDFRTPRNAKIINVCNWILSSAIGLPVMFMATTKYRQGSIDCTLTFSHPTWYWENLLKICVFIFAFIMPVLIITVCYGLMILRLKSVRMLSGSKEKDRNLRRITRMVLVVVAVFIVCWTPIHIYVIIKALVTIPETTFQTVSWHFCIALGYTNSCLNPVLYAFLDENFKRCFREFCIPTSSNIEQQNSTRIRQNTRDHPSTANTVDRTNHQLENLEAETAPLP

[31] = biological target: Delta-type opioid receptor (Homo sapiens, UniProt P41143); assay: Late-stage results from the probe development effort to identify antagonists of OPRK1: fluorescence-based cell-based dose response OPRD1 counterscreen.; assay type: functional
Delta-type opioid receptor, sequence (P41143 whole entry): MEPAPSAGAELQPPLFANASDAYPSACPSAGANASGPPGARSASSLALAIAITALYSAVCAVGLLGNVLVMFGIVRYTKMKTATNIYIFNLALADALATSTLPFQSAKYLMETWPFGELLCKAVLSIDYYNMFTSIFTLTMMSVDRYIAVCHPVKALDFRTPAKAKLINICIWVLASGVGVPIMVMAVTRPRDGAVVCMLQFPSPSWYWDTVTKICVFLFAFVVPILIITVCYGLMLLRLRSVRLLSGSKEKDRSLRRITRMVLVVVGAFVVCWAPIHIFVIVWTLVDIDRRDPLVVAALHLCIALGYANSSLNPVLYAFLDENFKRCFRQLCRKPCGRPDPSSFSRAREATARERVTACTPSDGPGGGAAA

[32] = ADAM10 inhibitors, peptide cleavage, dose response, biochemical, QFRET (AID 743254);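 note: ADAM10 enzyme with the DM2 quenched FRET peptide as substrate; EDANS fluorescence gain as the protease cuts the substrate; inhibitor potency against ADAM10 proteolytic activity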
[33] = biological target: Disintegrin and metalloproteinase domain-containing protein 17 (Homo sapiens, UniProt P78536); assay: ADAM17 protease inhibitors, dose response, counter-screen for ADAM10 exosite inhibitor project, biochemical, quenched FRET substrate (AID 743253)
Disintegrin and metalloproteinase domain-containing protein 17, sequence (P78536 whole entry, the tested form may be a part): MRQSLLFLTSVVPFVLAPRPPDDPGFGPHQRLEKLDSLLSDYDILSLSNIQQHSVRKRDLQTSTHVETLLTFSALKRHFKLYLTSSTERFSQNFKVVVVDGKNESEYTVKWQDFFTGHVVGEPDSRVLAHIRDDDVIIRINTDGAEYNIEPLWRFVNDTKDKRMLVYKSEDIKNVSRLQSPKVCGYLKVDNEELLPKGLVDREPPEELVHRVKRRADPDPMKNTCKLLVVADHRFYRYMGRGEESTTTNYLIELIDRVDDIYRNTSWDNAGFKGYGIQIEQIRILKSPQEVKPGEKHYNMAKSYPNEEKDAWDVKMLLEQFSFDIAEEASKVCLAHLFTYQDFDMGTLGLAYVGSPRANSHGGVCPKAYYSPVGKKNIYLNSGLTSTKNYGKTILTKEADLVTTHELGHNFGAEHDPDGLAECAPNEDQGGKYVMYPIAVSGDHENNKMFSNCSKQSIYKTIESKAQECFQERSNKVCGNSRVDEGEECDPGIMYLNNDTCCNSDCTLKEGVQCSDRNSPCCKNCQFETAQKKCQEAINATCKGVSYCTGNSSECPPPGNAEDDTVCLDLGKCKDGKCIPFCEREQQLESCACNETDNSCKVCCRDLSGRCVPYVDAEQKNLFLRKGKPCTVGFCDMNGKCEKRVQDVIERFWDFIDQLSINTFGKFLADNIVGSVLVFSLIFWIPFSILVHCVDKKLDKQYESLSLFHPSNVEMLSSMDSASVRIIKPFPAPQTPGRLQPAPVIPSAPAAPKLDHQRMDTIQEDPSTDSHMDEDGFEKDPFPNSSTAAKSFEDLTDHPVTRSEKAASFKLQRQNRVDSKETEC

In the case of `Cc1ccc(O)c([C@H](CCN(C(C)C)C(C)C)c2ccccc2)c1` [TOLTERODINE], the IC50 [1] is reported as > 33.3 µM (inactive).

For `c1ccc(-c2nnc(SCc3ccccn3)o2)cc1`, the IC90 [2] was 16 µM (active), the IC90 [3] was 4 µM (active) and the IC90 [4] was 4 µM (active).

In the case of `O=C(Cc1ccc(-c2ccccc2)cc1)NC1CCCCC1`, the AC50 [5] is reported as 109 µM (active).

With `CCN(CC)c1ccc2c(cc1=O)[C@@H](NC)CCc1cc(OC)c(OC)c(OC)c1-2` the AC50 [6] was 3.39 µM (active), the AC50 [7] was 1.63 µM (active) and the AC50 [8] was 6.57 µM (active). For the same compound, the AC50 [9] was 3.45 µM (active), the AC50 [10] was 11.7 µM (active) and the EC50 [11] was 1.07 µM (inconclusive). The AC50 [12] was 2.73 µM (active), the AC50 [13] was 7.15 µM (active) and the IC50 [14] was 1.49 µM (active). For the same compound, the EC50 [15] was 1.62 µM (active), the AC50 [16] was 2.9 µM (active) and the AC50 [17] was 5.95 µM (active). For the same compound, the EC50 [18] was 1.36 µM (inconclusive), the EC50 [19] was 0.35 µM (active) and the EC50 [20] was 0.953 µM (active). The EC50 [21] was 1.03 µM (active), the EC50 [22] was 0.343 µM (active) and the EC50 [23] was 0.684 µM (active). The AC50 [24] was 5.6 µM (active), the AC50 [25] was 2.89 µM (active) and the AC50 [26] was 6.61 µM (active).

In the case of `O=C(CN1CCCC1)Nc1ccc(Oc2ccc(NC(=O)CN3CCCC3)cc2)cc1`, the AC50 [27] is reported as > 52 µM (inactive).

With `CC/C(C)=N\Nc1nc(-c2cc3cc(OC)ccc3oc2=O)cs1` the AC50 [28] was > 52 µM (inactive) and the AC50 [29] was > 52 µM (inactive).

For `COC(=O)c1cc(Cl)cnc1N1CCC(NC2CCCCC2)CC1`, the IC50 [30] was 2 µM (active) and the IC50 [31] was 39 µM (inactive).

With `O=C1NCN(c2ccccc2)C12CCN(C(c1cccc3ccccc13)c1nnnn1Cc1ccccc1)CC2` (stereo not drawn) the IC50 [32] was > 69.5 µM (inactive) and the IC50 [33] was > 69.5 µM (inactive).
